Laboratory results: patent US20230339981A1, “KRAS G12D MODULATING COMPOUNDS” (priority 2022, published 2023)

Legend:
GP2D (KRAS G12D) cells = experiment: 2D cell viability assay (CellTiter-Glo); format: cell-based; details: GP2d, 96 h, 4 days
Outline: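 Viability was read by CellTiter-Glo after 4 days at 37 °C of 2D culture of KRAS G12D GP2D cells (1000/well, RPMI, 10% FBS) on pre-spotted threefold compound dilutions. EC50 was fitted with a sigmoidal dose-response model as the point of half-maximal luminescence loss.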

GDP-loaded KRAS G12D = GDP-loaded KRAS G12D (Homo sapiens (Human), UniProt P01116, G12D); experiment: KRAS G12D (GDP) biochemical assay (TR-FRET probe displacement); format: binding; details: 2 hours
Outline: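 TR-FRET probe displacement: 1:3 DMSO serial dilutions pre-incubated 30 min with GDP-bound KRAS G12D, followed by Eu-streptavidin/probe for 2 h at room temperature (Hepes pH 7.4, NaCl, MgCl2, Tween-20 buffer). IC50 defined as concentration halving TR-FRET ratio, from sigmoidal dose-response fit.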

AsPC-1 (KRAS G12D) cells = experiment: 3D cell viability assay (spheroids, CellTiter-Glo 3D); format: cell-based; details: Homo sapiens, ASPC1, 96 h, AsPC-1 cells, 3D spheroids, 4 days
Outline: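 AsPC-1 cells (1000/well) in DMEM with 10% FBS formed spheroids over 3 days at 37 °C in ultra-low attachment plates, then were treated with 1:3 serial dilutions for 4 days. Viability read by CellTiter-Glo 3D luminescence; EC50 as concentration giving 50% signal decrease, sigmoidal fit.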

Chain of GDP-loaded KRAS G12D (P01116-2 other isoform, or with tags, fused parts or gaps G12D): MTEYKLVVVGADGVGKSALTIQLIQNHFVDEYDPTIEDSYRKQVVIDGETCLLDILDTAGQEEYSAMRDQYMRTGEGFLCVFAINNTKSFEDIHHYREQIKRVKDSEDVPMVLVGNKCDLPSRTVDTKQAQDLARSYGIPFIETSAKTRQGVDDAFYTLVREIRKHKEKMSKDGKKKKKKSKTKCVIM

Q: What does the source list for `C#Cc1c(F)ccc2cc(O)cc(-c3nc4c5c(nc(OCC6(CN7CC8CC(C8)C7)CC6)nc5c3F)N3C[C@H]5CC[C@H](N5)[C@H]3CC4)c12` [Example 179, 4-((5aR,6S,9R)-12-((1-((3-azabicyclo[3.1.1]heptan-3-yl)methyl)cyclopropyl)methoxy)-1-fluoro-4,5,5a,6,7,8,9,10-octahydro-3,10a,11,13,14-pentaaza-6,9-methanonaphtho[1,8-ab]heptalen-2-yl)-5-ethynyl-6-fluoronaphthalen-2-ol]?
A: EC50 (GP2D (KRAS G12D) cells): 0.4 nM; IC50 (GDP-loaded KRAS G12D): 0.1 nM; EC50 (AsPC-1 (KRAS G12D) cells): 7.7 nM

Q: For `C#Cc1c(F)ccc2cc(O)cc(-c3nc4c5c(nc(OC[C@@]67CCCN6[C@H](COC(C(F)(F)F)(C(F)(F)F)C(F)(F)F)CC7)nc5c3F)N3C[C@H]5CC[C@H](N5)[C@H]3CCC4)c12` [Example 181, 5-ethynyl-6-fluoro-4-((6aR,7S,10R)-1-fluoro-13-(((3S,7aS)-3-(((1,1,1,3,3,3-hexafluoro-2-(trifluoromethyl)propan-2-yl)oxy)methyl)tetrahydro-1H-pyrrolizin-7a(5H)-yl)methoxy)-5,6,6a,7,8,9,10,11-octahydro-4H-3,11a,12,14,15-pentaaza-7,10-methanocyclohepta[4,5]cycloocta[1,2,3-de]naphthalen-2-yl)naphthalen-2-ol], which EC50 (GP2D (KRAS G12D) cells) is on record?
A: The EC50 was 0.3 nM.

Q: And the IC50 (GDP-loaded KRAS G12D)?
A: The IC50 was 0.5 nM.

Q: What about the EC50 (AsPC-1 (KRAS G12D) cells) of the same compound?
A: The EC50 was 6.9 nM.

Q: `C#Cc1c(F)ccc2cccc(-c3nc4c5c(nc(OC[C@@]67CCCN6C[C@H](F)C7)nc5c3F)N3C[C@H]5CC[C@H](N5)[C@H]3[C@@H](C)C4)c12` [Example 183, (5S,5aR,6S,9R)-2-(8-ethynyl-7-fluoronaphthalen-1-yl)-1-fluoro-12-(((2R,7aS)-2-fluorotetrahydro-1H-pyrrolizin-7a(5H)-yl)methoxy)-5-methyl-4,5,5a,6,7,8,9,10-octahydro-3,10a,11,13,14-pentaaza-6,9-methanonaphtho[1,8-ab]heptalene] was tested. Which EC50 (GP2D (KRAS G12D) cells) did it give?
A: Its EC50 is 63 nM.

Q: And the IC50 (GDP-loaded KRAS G12D)?
A: Its IC50 is 1.9 nM.

Q: And the EC50 (AsPC-1 (KRAS G12D) cells)?
A: The EC50 was 270 nM.

Q: How did the EC50 (GP2D (KRAS G12D) cells) turn out when `C#Cc1c(F)ccc2cc(O)cc(-c3nc4c5c(nc(OCC6(CN7CCC8(CC7)CC8(F)F)CC6)nc5c3F)N3C[C@H]5CC[C@H](N5)[C@H]3CC4)c12` [Example 185, 4-((5aR,6S,9R)-12-((1-((1,1-difluoro-6-azaspiro[2.5]octan-6-yl)methyl)cyclopropyl)methoxy)-1-fluoro-4,5,5a,6,7,8,9,10-octahydro-3,10a,11,13,14-pentaaza[6,9]methanonaphtho[1,8-ab]heptalen-2-yl)-5-ethynyl-6-fluoronaphthalen-2-ol] was run?
A: The EC50 was 2.7 nM.

Q: And the IC50 (GDP-loaded KRAS G12D)?
A: Its IC50 is 0.4 nM.

Q: What about the EC50 (AsPC-1 (KRAS G12D) cells) of the same compound?
A: The EC50 was 23.1 nM.

Q: For `C#Cc1c(F)ccc2cc(O)cc(-c3nc4c5c(nc(OC[C@@]67CCCN6C[C@H](F)C7)nc5c3F)N3C[C@H]5CC[C@H](N5)[C@H]3CCCC4)c12` [Example 189, 5-ethynyl-6-fluoro-4-((7aR,8S,11R)-1-fluoro-14-(((2R,7aS)-2-fluorotetrahydro-1H-pyrrolizin-7a(5H)-yl)methoxy)-4,5,6,7,7a,8,9,10,11,12-decahydro-3,12a,13,15,16-pentaaza-8,11-methanocyclohepta[4,5]cyclonona[1,2,3-de]naphthalen-2-yl)naphthalen-2-ol], which EC50 (GP2D (KRAS G12D) cells) is on record?
A: The EC50 was 0.6 nM.

Q: What about the IC50 (GDP-loaded KRAS G12D) of the same compound?
A: The IC50 was 0.1 nM.

Q: And the EC50 (AsPC-1 (KRAS G12D) cells)?
A: The EC50 was 2.9 nM.

Q: What does the source list for `C#Cc1c(F)ccc2cc(O)cc(-c3nc4c5c(nc(OC[C@@]67CCCN6C[C@H](F)C7)nc5c3F)N3C[C@@]5(C)CC[C@H](N5)[C@H]3CC4)c12` [Example 190, 5-ethynyl-6-fluoro-4-((5aR,6S,9R)-1-fluoro-12-(((2R,7aS)-2-fluorotetrahydro-1H-pyrrolizin-7a(5H)-yl)methoxy)-9-methyl-4,5,5a,6,7,8,9,10-octahydro-3,10a,11,13,14-pentaaza-6,9-methanonaphtho[1,8-ab]heptalen-2-yl)naphthalen-2-ol]?
A: EC50 (GP2D (KRAS G12D) cells): 1.5 nM; IC50 (GDP-loaded KRAS G12D): 0.1 nM; EC50 (AsPC-1 (KRAS G12D) cells): 7.9 nM

Q: Which results are given for `C#Cc1c(F)ccc2cccc(-c3nc4c5c(nc(OC[C@@]67CCCN6C[C@H](F)C7)nc5c3F)N3C[C@@]5(C)CC[C@H](N5)[C@H]3CC4)c12` [Example 191, (5aR,6S,9R)-2-(8-ethynyl-7-fluoronaphthalen-1-yl)-1-fluoro-12-(((2R,7aS)-2-fluorotetrahydro-1H-pyrrolizin-7a(5H)-yl)methoxy)-9-methyl-4,5,5a,6,7,8,9,10-octahydro-3,10a,11,13,14-pentaaza-6,9-methanonaphtho[1,8-ab]heptalene]?
A: EC50 (GP2D (KRAS G12D) cells): 39.8 nM; IC50 (GDP-loaded KRAS G12D): 2 nM; EC50 (AsPC-1 (KRAS G12D) cells): 110 nM
